Measured values as given in patent US6911478B2, “Nitric oxide-releasing amidine- and enamine-derived diazeniumdiolates, compositions and uses thereof and method of making same” (The United States of America as represented by the …, priority 1997, dated 2005).

Key:
Type in all cases: physicochemical
[1] = time course of NO production in phosphate buffer pH 7.4 at 37° C., chemiluminescence detector; conditions: phosphate buffer pH 7.4, 37° C.; for initial NO release rate: start of experiment
Description: This example describes the measurement of the time course of NO production by amidine and enamine nitric oxide adducts.
The NO release rate was measured periodically by flushing the solution with inert N2 gas and then sweeping newly generated NO into a chemiluminescence detector and integrating the signal produced over the next 4-7 mins. NO release was measured over a period of two weeks.
None of these compounds released nitric oxide via a single pathway which produced a release profile consistent with first order kinetics. Accordingly, the results of each test are summarized here by giving the initial NO release rate, the rate at one intermediate timepoint and the total time of observed NO release for representative examples.

[2] = gas evolution on dissolving in water and acidifying; conditions: dissolved in water and acidified
Excerpt: (§1) Nitrous oxide (N2O), being the end product of HNO dimerization and dehydration, provided a measure of HNO production via the equation (Nagasawa et al., J. Med. Chem. 33: 3122-3124 (1990)): [drawing 12]

[3] = production of NO and N2O by amidine/nitric oxide adducts, headspace chemiluminescence (NO) and gas chromatography (N2O); conditions: for Yield NO / Yield N2O: headspace; for Yield NO: chemiluminescence; for Yield N2O: gas chromatography
Excerpt: as §1
This example describes the measurement of the production of NO and N2O by amidine/nitric oxide adducts.

idazoxan-bis(nitric oxide) adduct [Example 7]
time at which NO release reached zero [1]: ≤ 16 days
NO release rate after 4 days ([1]; after 4 days (gradually increased)): 1.41×10^−10 moles NO/min./mg.
initial NO release rate [1]: 5.25×10^−11 moles NO/min./mg.

cyclohexanone morpholine enamine bis(nitric oxide) adduct [Example 9]
NO release profile, kinetic order [1]: nearly first order kinetics
time at which NO release reached zero [1]: ≤ 7 days
NO release rate after 3 days ([1]; after 3 days): 1.8×10^−11 mole NO/min./mg.
initial NO release rate [1]: 4.2×10^−11 moles NO/min./mg.

2-methyl-2-imidazoline tetrakis(nitric oxide)adduct [Example 2]
gas evolution [2]: voluminous gas evolution
Yield NO ([3]; 0.1 N HCl): 0.45 moles per mole cmpd
Yield N2O ([3]; 0.1 N HCl): 0.9 moles per mole cmpd
composition of evolving gas (NO and N2O) ([3]; pH 7.4, NO by chemiluminescence, N2O by gas chromatography): 2 parts NO (determined by chemiluminescence) and 1 part N2O

tetrahydrozoline bis(nitric oxide)adduct [Example 6]
total time of observed NO release (in words) [1]: continued for several weeks
NO release rate, last quantitative measurement ([1]; 15 days after the beginning): 9.00×10^−12 moles NO per min. per mg.
NO release rate after 7 days ([1]; after 7 days): 2.06×10^−11 moles NO per min. per mg.
initial NO release rate [1]: 3.64×10^−11 moles NO/min./mg.

acetamidine tetrakis (nitric oxide) adduct [Example 3]
Yield NO ([3]; pH 7.4 buffer): 0.05 moles per mole cmpd
Yield N2O ([3]; pH 7.4 buffer): 0.64 moles per mole cmpd

isobutyraldehyde morpholine enamine bis (nitric oxide) adduct [Example 10]
time at which NO release reached zero [1]: 7 days
initial NO release rate [1]: 3.7×10^−11 moles NO/min./mg.
NO release rate after rapid decrease ([1]; remained at about this level for 4 days): 7.0×10^−12 mole NO/min./mg.

2-iminopiperidine bis(nitric oxide)adduct [Example 4]
Yield NO ([3]; pH 7.4 buffer): −0.08 moles per mole cmpd
Yield N2O ([3]; pH 7.4 buffer): 0.45 moles per mole cmpd

O=NN(O)C1(C2=NCCN2)CCCCC1 [Example 5, 2-cyclohexyl-2-imidazoline bis(nitric oxide)adduct]
Yield N2O ([3]; 0.1 N HCl): 0.2 moles per mole cmpd
